# System: pancolitis in Patient #2
# Assay: Clinical treatment course of Patient #2 with pancolitis
# Assay type: in vivo, human
# Settings: Patient #2, pancolitis flare, conventional therapies
# Procedure: Patient #2 was evaluated by a general intestinal doctor […] to receive treatment for bloody stool. […]
# This included a glucocorticoid stress dose and a vancomycin treatment.
# At that point, the tissue obtained in the most recent colonoscopic biospy was gene expression (RNA) profiled according to an exemplary methodology of the present disclosure. […] In this case, the drug was indigo, an over the counter supplement, also known as Qing Dai.
row,SMILES,clinical response to treatment
1,C=CC[C@@H]1/C=C(\C)C[C@H](C)C[C@H](OC)[C@H]2O[C@@](O)(C(=O)C(=O)N3CCCC[C@H]3C(=O)O[C@H](/C(C)=C/[C@@H]3CC[C@@H](O)[C@H](OC)C3)[C@H](C)[C@@H](O)CC1=O)[C@H](C)C[C@@H]2OC [tacrolimus],mild improvement but no remission
2,Sc1ncnc2nc[nH]c12 [6-mercaptopurine],no improvement after 3 months
3,CO[C@H]1/C=C/O[C@@]2(C)Oc3c(C)c(O)c4c(O)c(c5c(nc6cc(C)ccn65)c4c3C2=O)NC(=O)/C(C)=C\C=C\[C@H](C)[C@H](O)[C@@H](C)[C@@H](O)[C@@H](C)[C@H](OC(C)=O)[C@@H]1C [Rifaximin],transient improvement for a couple weeks
4,CN[C@H](CC(C)C)C(=O)N[C@H]1C(=O)N[C@@H](CC(N)=O)C(=O)N[C@H]2C(=O)N[C@H]3C(=O)N[C@H](C(=O)N[C@H](C(=O)O)c4cc(O)cc(O)c4-c4cc3ccc4O)[C@H](O)c3ccc(c(Cl)c3)Oc3cc2cc(c3O[C@@H]2O[C@H](CO)[C@@H](O)[C@H](O)[C@H]2O[C@H]2C[C@](C)(N)[C@H](O)[C@H](C)O2)Oc2ccc(cc2Cl)[C@H]1O [vancomycin],transient effect that lasted about a week
